The text below walks through data of patent publication US12016901B2, “Tissue catalyzed growth of polymer as epithelial linings for therapy” (priority 2019, dated 2024).

One series can be described thus: in vivo. Particulars: pig. The procedure:
In vivo evolution of pharmacokinetics of the praziquantel-tissue-accelerated polymerization. Pigs were sedated, intubated, and maintained with isoflurane as described above. The gastric fluid was removed from the stomach before administration. […] Praziquantel without the tissue-accelerated polymerization was used as the control. Blood samples were collected from a marginal ear vein at designated time points. Serum samples were separated from blood by centrifugation (1800 G×10 min at 4° C.) and were stored at −80° C. for further analysis. […] Serum praziquantel concentration assessment. Praziquantel concentrations in serum from in vivo experiments were analyzed using Ultra-Performance Liquid Chromatography-Tandem Mass Spectrometry (UPLC-MS/MS). Analysis was performed on a Waters ACQUITY UPLC-I-Class System aligned with a Waters Xevo TQ-S mass spectrometer (Waters Corporation, Milford Mass.). Liquid chromatographic separation was performed on an Acquity UPLC BEH C18 (50 mm×2.1 mm, 1.7-μm particle size) column at 50° C. The mobile phase consisted of aqueous 0.1% formic acid, 10 mM ammonium formate solution (Mobile Phase A) and acetonitrile: 10 mM ammonium formate, 0.1% formic acid solution (95:5 v/v) (Mobile Phase B). […] The composition of 0% Mobile Phase A and 100% Mobile Phase B was held constant until 3.50 minutes. The composition returned to 80% Mobile Phase A at 3.51 minutes and was held at this composition until completion of the run, ending at 5.00 minutes, where it remained for column equilibration. The total run time was 5.00 minutes. […] Sample introduction and ionization was by electrospray ionization (ESI) in the positive ionization mode. Waters MassLynx 4.1 software was used for data acquisition and analysis. Stock solutions of praziquantel were prepared in methanol at a concentration of 500 μg/ml. […] Samples were vortexed, sonicated for 10 minutes, and centrifuged for 10 minutes at 13,000 rpm. 200 μl of supernatant was pipetted into a 96-well plate containing 200 μl of water. Finally, 1.00 μl was injected onto the UPLC-ESI-MS system for analysis.

A further series has as its target T1, catalase (Sus scrofa, UniProt O62839).
T1 construct: from tissue; host or cells: porcine small intestinal epithelium, homogenized in RIPA buffer (tissue lysate)
T1 sequence (O62839 2-527 limits assumed): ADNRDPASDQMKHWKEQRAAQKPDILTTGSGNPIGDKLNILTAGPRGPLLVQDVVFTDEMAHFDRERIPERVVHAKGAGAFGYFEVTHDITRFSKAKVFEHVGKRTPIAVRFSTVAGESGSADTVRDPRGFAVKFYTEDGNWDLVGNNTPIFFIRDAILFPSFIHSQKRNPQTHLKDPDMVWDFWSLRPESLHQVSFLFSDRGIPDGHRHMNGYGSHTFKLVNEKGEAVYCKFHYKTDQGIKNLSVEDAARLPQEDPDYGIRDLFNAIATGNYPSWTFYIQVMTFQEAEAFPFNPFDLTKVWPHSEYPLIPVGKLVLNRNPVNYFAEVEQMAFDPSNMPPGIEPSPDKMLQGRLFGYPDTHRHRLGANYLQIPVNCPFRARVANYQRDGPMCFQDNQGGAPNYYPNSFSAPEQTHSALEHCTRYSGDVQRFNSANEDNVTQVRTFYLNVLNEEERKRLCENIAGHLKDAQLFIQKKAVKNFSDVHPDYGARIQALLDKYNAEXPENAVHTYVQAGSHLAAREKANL
Put plainly: In vitro inhibition of catalase activity in tissue lysates. It is filed as biochemical, pig. To be noted: small intestinal lysates, inhibitor 20 mM, 6 hours, 4° C. The procedure:
Tissue lysate preparation. Epithelial tissues of the porcine gastrointestinal tract were dissected on ice. The outer mucus layers were removed by aspiration, and then the rinsed tissues [(with 1× phosphate-buffered saline (PBS)] were frozen by liquid nitrogen. Tissues (10 mg) were incubated in the ice-cold lysis buffer (600 μl, RIPA buffer mixed with protease and phosphatase inhibitor cocktail, Sigma-Aldrich) and homogenized to form tissue lysates. The total protein concentrations of tissue lysates were measured by using the bicinchoninic acid (BCA) assay.
In vitro inhibition of catalase activity. 3-amino-1,2,4-triazole was used as the inhibitor. Tissue lysates (10 mg/ml, 100 μl) were incubated in the inhibitor solution (20 mM) for 6 hours at 4° C.

What is called AUC is concentration integrated over time. A high value points to more exposure. The half-life is how long it takes for the measured level to halve. A low value points to rapid decline. With `O=C(C1CCCCC1)N1CC(=O)N2CCc3ccccc3C2C1` (stereo not drawn) [praziquantel control, Praziquantel], in the series “in vivo” (Yorkshire), the AUC was found to be 222 ng·h/mL, the concentration at 6 h worked out at 15.1 ng/mL, the elimination phase was in the range of 2 to 6 h and the half-life was 1.3 h. Moreover, in “in vivo”, the “serum praziquantel concentration at 24 hours” value was “no drug was detected”.

For the compound `Nc1nc[nH]n1` [catalase-specific inhibitor, 3-amino-1,2,4-triazole], on catalase, the “decrease of catalytic capacity of lysates” value is recorded as “around 80%”.
